The text below walks through data of patent publication US20220047551A1, “PHARMACEUTICAL AGENT FOR TREATING AMYOTROPHIC LATERAL SCLEROSIS OR SUPPRESSING DISEASE PROGRESS THEREOF” (Mitsubishi Tanabe Pharma Corporation, priority 2011, published 2022).

The test system of this test is patients with amyotrophic lateral sclerosis. Nature of the test: Placebo-controlled clinical test in amyotrophic lateral sclerosis patients, measured in terms of ALSFRS-R. It is filed as in vivo, human. As for the experimental part:
199 patients with amyotrophic lateral sclerosis who complied with the following selection standards were divided into an actual drug administration group consisting of 100 patients and a placebo administration group of 99 patients:
With regard to the actual drug administration group, two ampules of “Radicut (registered trademark), Injection 30 mg” (containing 30 mg of 3-methyl-1-phenyl-2-pyrazolin-5-one; manufactured and distributed by Mitsubishi Tanabe Pharma Corporation) were diluted with a suitable amount of normal saline before the use, and the thus prepared solution was intravenously administered to the patients by drops over 60 minutes once a day. On the other hand, with regard to the placebo administration group, only normal saline was administered to the patients in the same manner as for the actual drug administration group.
The administration period was divided into first to sixth courses. The first course consisted of a continuous 14-day administration period and the subsequent drug holiday period for 14 days in which drug administration was not carried out. In the second to sixth courses, 1 set consisting of an administration period for a total of 10 out of 14 days and the subsequent 14-day drug holiday period was repeated 5 times.
Before initiation of the drug administration in the first course, and upon termination of the drug holiday periods in the first, second, third, fourth, fifth and sixth courses, the 199 patients were measured in terms of ALSFRS-R. Among the 199 patients, some patients were dropped out from the test during a period after initiation of the administration in the fourth course and before termination of the drug holiday period in the sixth course. In the case of these drop-out patients, the ALSFRS-R score measured immediately before dropping out from the test was considered to be the score upon termination of the drug holiday period in the sixth course, and it was used in the analysis.
A difference between the ALSFRS-R scores between before initiation of the administration in the first course and upon termination of the drug holiday period in the sixth course is shown below.
Subsequently, the 199 patients were divided into the following (1) to (7):
(1) patients who were determined to be “Definite ALS” or “Probable ALS” according to the revised El Escorial (Airlie House) diagnostic criteria; (2) patient who were determined to be “Definite ALS” according to the revised El Escorial (Airlie House) diagnostic criteria; (3) patients who scored two or more points from all items constituting the ALSFRS-R; (4) patients whose % FVC was 80% or more; (5) patients who scored two or more points from all items constituting the ALSFRS-R and whose % FVC was 80% or more; (6) patients who were determined to be “Definite ALS” or “Probable ALS” according to the revised El Escorial (Airlie House) diagnostic criteria, scored two or more points from all items constituting the ALSFRS-R, and whose % FVC was 80% or more; and (7) patients who were determined to be “Definite ALS” according to the revised El Escorial (Airlie House) diagnostic criteria, scored two or more points from all items constituting the ALSFRS-R, and whose % FVC was 80% or more. With regard to the thus specified patients (1) to (7), differences in the ALSFRS-R scores between before the administration in the first course and upon termination of the drug holiday period in the sixth course are shown below.

Take `CC1=NN(c2ccccc2)C(=O)C1` [Actual drug, 3-methyl-1-phenyl-2-pyrazolin-5-one]: the “Between-group difference in ALSFRS-R score change (actual drug vs placebo)” value ((1) Definite ALS or Probable ALS) was found to be 1.2 points; the “Between-group difference in ALSFRS-R score change (actual drug vs placebo)” value ((2) Definite ALS) is 2.0 points; the “Between-group difference in ALSFRS-R score change (actual drug vs placebo)” value ((3) two or more points from all items constituting ALSFRS-R) is recorded as 1.6 points; the “Between-group difference in ALSFRS-R score change (actual drug vs placebo)” value ((4) 80% or more % FVC) came to 1.3 points; the “Between-group difference in ALSFRS-R score change (actual drug vs placebo)” value ((5) two or more points from all ALSFRS-R items and 80% or more % FVC) is listed as 2.5 points; the “Between-group difference in ALSFRS-R score change (actual drug vs placebo)” value ((6) Definite ALS or Probable ALS, two or more points from all ALSFRS-R items, and 80% or more % FVC) is 3.7 points. The “Between-group difference in ALSFRS-R score change (actual drug vs placebo)” value stood at 6.4 points ((7) Definite ALS, two or more points from all ALSFRS-R items, and 80% or more % FVC); 0.7 points (all patients (not specified)). Besides, the “Before-and-after difference in ALSFRS-R score” value runs as follows: ((1) Definite ALS or Probable ALS, before first course vs end of sixth course) −5.7 points; ((2) Definite ALS, before first course vs end of sixth course) −6.7 points; ((3) two or more points from all items constituting ALSFRS-R, before first course vs end of sixth course) −4.7 points; ((4) 80% or more % FVC, before first course vs end of sixth course) −3.9 points; ((5) two or more points from all ALSFRS-R items and 80% or more % FVC, before first course vs end of sixth course) −3.4 points; ((6) Definite ALS or Probable ALS, two or more points from all ALSFRS-R items, and 80% or more % FVC, before first course vs end of sixth course) −3.8 points. Besides, the “Before-and-after difference in ALSFRS-R score” value reads like this: ((7) Definite ALS, two or more points from all ALSFRS-R items, and 80% or more % FVC, before first course vs end of sixth course) −4.6 points; (all patients (not specified), before first-course administration vs end of sixth-course drug holiday, 60 mg i.v. drops over 60 min once a day) −5.3 points. For the same compound, the “Comparison with the placebo administration group (ALSFRS-R difference)” value (patient groups (5) to (7)) is “significant difference”. Besides, under “specific patients (1) to (7), extrapolated from 7% risk per 1 point ALSFRS-R (Neurology 2005; 64: 38-43)”, the “Reduction of the risk of death or tracheostomy” value is ≥ 3.5%.
